Measured values published in US20240325394A1, “SALT AND CRYSTAL FORM OF NITROGEN-CONTAINING HETEROCYCLIC DERIVATIVE, PREPARATION METHOD THEREFOR AND APPLICATION THEREOF” (SHANGHAI HANSOH BIOMEDICAL CO., LTD., priority 2020, published 2024).

Tested on: human pancreatic cancer cell MiaPaca 2 xenograft (CDX)
Assay: Tumor inhibition on MiaPaca 2 transplanted tumor model
Assay type: in vivo, BALB/c nude mice
Settings: oral 6 mg/kg QD×3w
Experimental: MiaPaca 2 cells were removed from the cell bank, revived and added to DMEM medium (containing 10% FBS, 1% Glu, 1% P/S) and incubated in a CO2 incubator (incubator temperature was 37° C., CO2 concentration was 5%). After the cells were spread to 80-90% of the bottom of the culture flask, the cells were continued to be cultured in the CO2 incubator. The process was repeated until the number of cells met the in vivo pharmacological inoculation requirement, and the cells in logarithmic growth period were collected and counted with an automatic cell counter, resuspended with PBS and Matrigel (volume ratio 1:1) according to the count results, made into a cell suspension (the density was 8×10^7/mL), and placed in an ice box for use.
BALB/c nude mice, female, 6-8 weeks old, weighing about 18-22 g. The mice were kept in an environment free of special pathogens and in a single ventilated cage with 5 mice in each cage. […] Nude mice were labeled with disposable universal ear tags for mice and rats before the start of the experiment, and the skin of the inoculation site was disinfected with 75% medical alcohol before inoculation, 0.1 mL (containing 8*10^6 cells) of MiaPaca 2 tumor cells were inoculated subcutaneously on the right back of each mouse. When the tumor volume reached 100-200 mm^3, the group administration was started.
The tumor volume (mm^3) was measured with vernier caliper twice a week, the calculation formula was V=[…], wherein D and d were the long and short diameter of the tumor, respectively. The anti-tumor efficacy was determined by dividing the average tumor increased volume of the compound-treated animals by the average tumor increased volume of the untreated animals. The formula of tumor inhibition rate is: TGI (%)=1−[(Vt−V0) administration group/(Vt−V0) solvent control group]*100%. After the experiment, all animals were euthanized.

What does the source list for “P-4-((2S,5R)-4-acryloyl-2,5-dimethylpiperazin-1-yl)-6-fluoro-7-(2-fluoro-6-hydroxyphenyl)-1-(2-isopropyl-4-(methylthio)pyridin-3-yl)pyrido[2,3-d]pyrimidin-2(1H)-one [Embodiment 2-1]”?
Tumor volume (mm^3, Mean ± SD) Day 0 (Day 0): 177 ± 38 mm^3; TGI (%) Day 21 (Day 21): 162.36%; Tumor volume (mm^3, Mean ± SD) Day 21 (Day 21): 67 ± 34 mm^3; ΔT/ΔC (%) Day 21 (Day 21): −62.36%
